Results: patent US20220089600A1, “TGFß INHIBITOR AND PRODRUGS” (FUNDACIÓ INSTITUT DE RECERCA BIOMÈDICA (IRB BARCELONA), priority 2018, published 2022)

Columns and labels:
ACVR2B = biological target: T1, ACVR2B (Homo sapiens, UniProt Q13705); experiment: KINOMEscan affinity, competition binding
T1 construct: purchased Eurofins (KINOMEscan service)
Protocol: (§1) The affinity, measured as Kd (dissociation constants), of the compound of formula I for the ALK family was determined by using the KINOMEscan™ Technology from Eurofins. Selectivity in front of ALK1 (ACVRL1), ALK2 (ACVR1), ALK3 (BMPR1A), ALK4 (ACVR1B), ALK6 (BMPR1B), ACVR2B and TGFβR2 was determined.
(§2) The KINOMEscan screening platform employs an active-site directed competition binding assay to quantitatively measure interactions between test compounds and kinases.
(§3) The assay is performed by combining three components: DNA-tagged kinase; immobilized ligand; and a test compound. The ability of the test compound to compete with the immobilized ligand is measured via quantitative PCR of the DNA tag.
(§4) Test compounds were prepared as 111× stocks in 100% DMSO. Kds were determined using an 11-point 3-fold compound dilution series with three DMSO control points being the top concentration 30 μM. […] The compounds were then diluted directly into the assays such that the final concentration of DMSO was 0.9%. All reactions performed in polypropylene 384-well plate. Each was a final volume of 0.02 ml. […] The beads were then re-suspended in elution buffer (1×PBS, 0.05% Tween 20, 0.5 μM non-biotinylated affinity ligand) and incubated at room temperature with shaking for 30 minutes. The kinase concentration in the eluates was measured by qPCR.
(§5) Compounds that bind the kinase active site and directly (sterically) or indirectly (allosterically) prevent kinase binding to the immobilized ligand, will reduce the amount of kinase captured on the solid support. […] Dissociation constants (Kds) for test compound-kinase interactions are calculated by measuring the amount of kinase captured on the solid support as a function of the test compound concentration.

ALK1 (ACVRL1) = biological target: T2, ALK1 (ACVRL1) (Homo sapiens, UniProt P37023); experiment: KINOMEscan affinity, competition binding
T2 construct: purchased Eurofins (KINOMEscan service)
T2 sequence (P37023 22-503): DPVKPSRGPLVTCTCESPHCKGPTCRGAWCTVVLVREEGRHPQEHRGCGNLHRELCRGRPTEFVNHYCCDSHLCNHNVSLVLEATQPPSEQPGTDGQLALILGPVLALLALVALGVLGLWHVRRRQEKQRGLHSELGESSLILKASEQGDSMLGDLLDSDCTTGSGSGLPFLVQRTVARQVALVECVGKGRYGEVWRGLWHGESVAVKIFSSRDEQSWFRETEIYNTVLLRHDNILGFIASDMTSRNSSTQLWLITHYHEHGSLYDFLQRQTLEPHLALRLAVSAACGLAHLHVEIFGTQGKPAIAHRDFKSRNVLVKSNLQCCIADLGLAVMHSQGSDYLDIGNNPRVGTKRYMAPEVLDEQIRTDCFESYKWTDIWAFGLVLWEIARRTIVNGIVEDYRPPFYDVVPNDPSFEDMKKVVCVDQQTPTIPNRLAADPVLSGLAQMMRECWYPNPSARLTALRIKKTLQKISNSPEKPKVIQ
Protocol: as §1, §2, §3, §4, §5

ALK2 (ACVR1) = biological target: T3, ALK2 (ACVR1) (Homo sapiens, UniProt Q04771); experiment: KINOMEscan affinity, competition binding
T3 construct: purchased Eurofins (KINOMEscan service)
T3 sequence (Q04771 21-509): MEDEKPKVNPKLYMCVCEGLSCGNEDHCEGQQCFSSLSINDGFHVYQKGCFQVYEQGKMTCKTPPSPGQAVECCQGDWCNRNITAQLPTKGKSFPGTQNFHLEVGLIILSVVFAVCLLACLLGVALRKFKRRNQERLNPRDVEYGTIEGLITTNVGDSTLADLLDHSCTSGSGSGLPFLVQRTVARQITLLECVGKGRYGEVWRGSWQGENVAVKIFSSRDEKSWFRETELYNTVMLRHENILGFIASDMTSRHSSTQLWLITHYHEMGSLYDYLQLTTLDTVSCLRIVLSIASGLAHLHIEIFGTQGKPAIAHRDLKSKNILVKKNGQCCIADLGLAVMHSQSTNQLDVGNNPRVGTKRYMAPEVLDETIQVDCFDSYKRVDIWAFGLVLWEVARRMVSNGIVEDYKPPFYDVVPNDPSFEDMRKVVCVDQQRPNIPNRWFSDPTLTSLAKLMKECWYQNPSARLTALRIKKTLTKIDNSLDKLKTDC
Protocol: as §1, §2, §3, §4, §5

ALK6 (BMPR1B) = biological target: T4, ALK6 (BMPR1B) (Homo sapiens, UniProt O00238); experiment: KINOMEscan affinity, competition binding
T4 construct: purchased Eurofins (KINOMEscan service)
T4 sequence (O00238 14-502): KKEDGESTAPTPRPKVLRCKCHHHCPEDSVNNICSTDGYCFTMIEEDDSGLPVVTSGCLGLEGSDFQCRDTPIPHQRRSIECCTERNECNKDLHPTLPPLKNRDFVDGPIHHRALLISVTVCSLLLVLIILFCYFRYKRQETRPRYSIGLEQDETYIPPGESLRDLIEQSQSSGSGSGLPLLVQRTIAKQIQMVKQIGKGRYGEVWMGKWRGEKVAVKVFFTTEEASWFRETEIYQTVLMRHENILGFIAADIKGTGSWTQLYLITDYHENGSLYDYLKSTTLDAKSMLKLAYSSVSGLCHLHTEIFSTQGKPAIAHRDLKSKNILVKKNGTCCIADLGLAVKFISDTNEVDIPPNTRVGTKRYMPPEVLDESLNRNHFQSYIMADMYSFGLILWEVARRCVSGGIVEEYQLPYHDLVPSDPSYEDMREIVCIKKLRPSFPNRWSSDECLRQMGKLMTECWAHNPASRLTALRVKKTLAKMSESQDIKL
Protocol: as §1, §2, §3, §4, §5

TGFBR2 = biological target: T5, TGFBR2 (Homo sapiens, UniProt P37173); experiment: KINOMEscan affinity, competition binding
T5 construct: purchased Eurofins (KINOMEscan service)
T5 sequence (P37173 23-567): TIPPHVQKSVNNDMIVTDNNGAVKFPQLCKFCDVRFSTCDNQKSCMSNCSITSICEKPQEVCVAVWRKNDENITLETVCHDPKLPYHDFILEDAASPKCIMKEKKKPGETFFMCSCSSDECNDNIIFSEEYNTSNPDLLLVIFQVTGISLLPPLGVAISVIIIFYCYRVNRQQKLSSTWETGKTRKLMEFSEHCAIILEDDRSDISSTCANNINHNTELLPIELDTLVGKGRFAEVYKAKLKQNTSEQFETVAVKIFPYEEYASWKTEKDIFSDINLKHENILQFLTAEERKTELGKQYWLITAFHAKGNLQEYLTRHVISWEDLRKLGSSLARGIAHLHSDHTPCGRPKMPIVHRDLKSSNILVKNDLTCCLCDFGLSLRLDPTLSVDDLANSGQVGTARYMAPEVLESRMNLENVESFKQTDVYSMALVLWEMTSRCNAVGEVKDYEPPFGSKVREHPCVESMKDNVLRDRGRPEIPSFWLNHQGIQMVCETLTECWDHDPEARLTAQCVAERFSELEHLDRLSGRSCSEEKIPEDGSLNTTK
Protocol: as §1, §2, §3, §4, §5

panel of 97 proteins = experiment: scanEDGE (KINOMEscan) selectivity panel; format: binding
Protocol: Using scanEDGE (KINOMEscan, Eurofins) assays, the selectivity of the compound of formula I against a panel of 97 proteins was also measured. The selectivity profile of the compound of formula was good.

[1] = tested on: proteins in the SafetyScreen44 panel (versus ALK5); experiment: SafetyScreen44 safety panel; conditions: SafetyScreen44 panel (Eurofins) of off-target proteins; read-out: selectivity ratios for the proteins in the SafetyScreen44 panel
Protocol: (§6) In addition, a safety assessment was performed by using the SafetyScreen44™ service from Eurofins. The targets therein are all strongly associated with in vivo adverse drug reactions as referenced in the publication Reducing safety-related drug attrition: the use of in vitro pharmacological profiling (Bowes J et al., Nature Review Drug Discovery 2012, 11(12): 909-922). The panel represents a rational first step in preliminary safety assessments as they provide early identification of potential off-target interactions for the optimization of safety margins. This Safety Panel includes both enzymatic and binding assays. The percentage of inhibition for the compound of formula I at 10 μM was lower than 50% for all proteins tested.

[2] = tested on: proteins in the SafetyScreen44 panel; experiment: SafetyScreen44 safety panel; conditions: at 10 μM, all proteins tested
Protocol: as §6

[3] = tested on: TGFβ signaling (12×CAGA-Firefly_Luc reporter) in HEK293T cells; experiment: In vitro CAGA-Luciferase reporter assay; format: cell-based; conditions: Homo sapiens, HEK-293T, 5 ng/ml TGFB1, 16h, read-out: IC50, TGFβ signaling inhibition (CAGA-Luciferase)
Protocol: HEK293T cells were purchased from the ATCC and cultured in DMEM supplemented with L-glutamine and 10% fetal bovine serum (Life Technologies) at 37° C. and 5% CO2. The cells were seeded in 24-well plates and transfected with plasmids encoding 12×CAGA-Firefly_Luc and Tk-Renilla_Luc (75 and 10 ng per well, respectively), using polyethylenimine (Polysciences) as transfection reagent. After 7h, medium was replaced for starvation medium (DMEM+0.05% FBS). […] Luciferase activity was measured 16h later using the Dual Luciferase Assay kit (Promega): media were aspirated, and cells were lysed in 200 μl passive lysis buffer (kit) for 20 minutes. Bioluminescence was measured in a Berthold Lumat LB6507 luminometer (18 μl reagents, 10 seconds measurements). […]
When adding the luciferase substrate (luciferin) to the cell lysates, emission of light implies an active TGF-β pathway due to the production of pSMAD2/3-SMAD4, whereas no or little observed light would imply inhibition of the pathway by the inhibitor. Finally, the results could be normalized by the addition of Stop & Glo® which quenches the firefly luciferase enzyme/substrate and activates the Renilla transfection control, producing light which was again measured by the luminometer and used to normalize the data.

T1 sequence (Q13705 19-512): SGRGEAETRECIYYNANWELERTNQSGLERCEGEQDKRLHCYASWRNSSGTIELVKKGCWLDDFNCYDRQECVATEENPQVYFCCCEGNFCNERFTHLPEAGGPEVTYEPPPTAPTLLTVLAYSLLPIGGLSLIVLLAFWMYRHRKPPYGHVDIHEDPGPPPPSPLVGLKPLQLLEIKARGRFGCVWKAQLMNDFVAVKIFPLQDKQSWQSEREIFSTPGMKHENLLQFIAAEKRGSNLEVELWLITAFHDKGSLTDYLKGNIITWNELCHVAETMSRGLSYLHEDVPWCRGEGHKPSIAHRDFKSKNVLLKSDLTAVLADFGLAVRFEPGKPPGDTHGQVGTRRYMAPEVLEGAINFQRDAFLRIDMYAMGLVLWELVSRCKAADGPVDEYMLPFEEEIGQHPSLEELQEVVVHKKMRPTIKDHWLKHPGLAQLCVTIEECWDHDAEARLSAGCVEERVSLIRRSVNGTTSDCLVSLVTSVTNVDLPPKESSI

## Cc1cccc(-c2nn3c(c2-c2ccnc4ccc(O)cc24)CCC3)n1 [compound of formula I, 4-(2-(6-methylpyridin-2-yl)-5,6-dihydro-4H-pyrrolo[1,2-b]pyrazol-3-yl)quinolin-6-ol]
ACVR2B; (I) versus Galunisertib
  Selectivity improvement: 1.2
ACVR2B; ACVR2B versus ALK5
  Selectivity against ALK5: 5.0
ACVR2B; KINOMEscan
  selectivity for ALK5 against ACVR2B: 5 fold
ALK1 (ACVRL1); (I) versus Galunisertib
  Selectivity improvement: 3.8
ALK1 (ACVRL1); ALK1 versus ALK5
  Selectivity against ALK5: 550
ALK1 (ACVRL1); KINOMEscan
  selectivity for ALK5 against ALK1: greater than 300 fold
ALK2 (ACVR1); (I) versus Galunisertib
  Selectivity improvement: 1.8
ALK2 (ACVR1); ALK2 versus ALK5
  Selectivity against ALK5: 375
ALK2 (ACVR1); KINOMEscan
  selectivity for ALK5 against ALK2: greater than 300 fold
ALK6 (BMPR1B); (I) versus Galunisertib
  Selectivity improvement: 2.9
ALK6 (BMPR1B); ALK6 versus ALK5
  Selectivity against ALK5: 8.0
ALK6 (BMPR1B); KINOMEscan
  selectivity for ALK5 against ALK6: 8 fold
TGFBR2; (I) versus Galunisertib
  Selectivity improvement: 83
TGFBR2; KINOMEscan
  selectivity for ALK5 against TGFBR2: 100 fold
TGFBR2; TGFBR2 versus ALK5
  Selectivity against ALK5: 100
Panel of 97 proteins
  selectivity profile: good
[1]
  selectivity ratio at 10 μM: > 500
[2]
  percentage of inhibition: lower than 50%
[3]
  IC50: 0.165 µM
Genotoxicity screens
  toxicity screens including genotoxicity: cleared
